The values below come from patent publication US11326207B2, “Sequencing using non-natural nucleotides” (Ultima Genomics, Inc., priority 2017, dated 2022).

Type in all cases: biochemical
One experiment deals with T1, Bst DNA polymerase (Geobacillus stearothermophilus, UniProt P52026).
T1 sequence (P52026 1-876): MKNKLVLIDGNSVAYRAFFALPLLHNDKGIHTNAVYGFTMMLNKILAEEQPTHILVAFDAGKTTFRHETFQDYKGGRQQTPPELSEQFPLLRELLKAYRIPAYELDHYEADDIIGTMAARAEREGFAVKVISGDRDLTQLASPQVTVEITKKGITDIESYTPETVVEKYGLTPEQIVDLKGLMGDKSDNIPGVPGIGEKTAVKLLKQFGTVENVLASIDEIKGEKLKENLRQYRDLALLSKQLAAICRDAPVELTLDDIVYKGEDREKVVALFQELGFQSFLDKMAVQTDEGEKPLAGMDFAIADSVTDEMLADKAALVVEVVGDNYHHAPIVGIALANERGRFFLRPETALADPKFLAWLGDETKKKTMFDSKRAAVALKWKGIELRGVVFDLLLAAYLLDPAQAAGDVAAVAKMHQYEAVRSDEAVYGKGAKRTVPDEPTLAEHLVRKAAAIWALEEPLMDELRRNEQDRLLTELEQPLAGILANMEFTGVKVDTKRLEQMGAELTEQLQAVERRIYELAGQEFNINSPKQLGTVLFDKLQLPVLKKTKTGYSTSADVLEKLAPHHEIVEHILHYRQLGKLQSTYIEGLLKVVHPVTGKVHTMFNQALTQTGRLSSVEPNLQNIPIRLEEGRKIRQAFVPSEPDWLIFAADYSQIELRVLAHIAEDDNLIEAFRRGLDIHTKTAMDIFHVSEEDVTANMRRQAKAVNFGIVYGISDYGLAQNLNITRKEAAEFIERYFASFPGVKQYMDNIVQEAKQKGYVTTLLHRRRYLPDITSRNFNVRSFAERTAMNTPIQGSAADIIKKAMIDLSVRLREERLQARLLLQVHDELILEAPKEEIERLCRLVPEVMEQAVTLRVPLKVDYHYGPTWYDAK
Kind of experiment: Stepwise sequencing with TTP and E-dUTP, context metric (Example 8). The conditions noted are these: 0.05 fraction of dUTP*. The text has this: A microscope slide surface was modified with polyaminosilane to allow the attachment of 1 micron beads each containing one of three different oligonucleotide templates. To each template was bound an oligonucleotide primer and Bst DNA polymerase. Solutions of mixtures of labeled and unlabeled nucleotide, of one type at a time, were exposed to the surface, followed by a wash solution. The fluorescence of labeled beads was detected and quantitated. The fluorescence label was cleaved by treatment with tris(hydroxypropyl)phosphine (THP) after each step.
Context was measured for each experiment. Context is given by the context metric, C, which is defined as the (maximum-minimum signal)/average signal.

The next experiment has as its system hairpin oligo. The experiment is described as follows: Kinetic assay using hairpin oligos (Example 7). Here is the method: A kinetic assay using hairpin oligos was also performed to determine the rate of incorporate of an unnatural nucleotide and a natural nucleotide following the unnatural nucleotide. […] Incorporation of a T or U analog unquenched a fluorescein in the hairpin oligo. Following incorporation of the T or U analog, a mixture of C and A was added, which further unquenched the dye.

The subject of the next experiment is Bst DNA polymerase v.2.0. The experiment is described as follows: Competition assay: one base extension, capillary electrophoresis and flow cytometry (Example 6). How it is done:
The final concentrations of various nucleotides in the mixtures were 5 micromolar (μM). […] A solution of biotinylated template (2 microliters (μL) of 100 μM) and dye-labeled primer (4 μL of 100 μM) were combined in annealing buffer (40 μL; Tris (10 millimolar (mM)), EDTA (1 mM), NaCl (100 mM)). The resulting solution was heated to 95° C. and allowed to slowly cool to room temperature. […] New England Biolabs) for five minutes. […] Next, a portion of the suspended magnetic beads (10 μL) were removed and placed in a PCR tube. A solution of nucleotides (10 μL) was added to the tube and the tube incubated for 40 seconds (s) at 50° C. The enzyme reaction was stopped with the addition of 5 μL of 50 mM EDTA. The beads were washed with 2×100 μL TET and resuspended in 20 μL TET. […] The eluant of the remaining beads was removed and 40 μL of 95:5 formamide:10 mM EDTA was added to the beads. A portion of the formamide solution (1 μL) was added to 40 μL 95:5 formamide EDTA. The solutions were examined by capillary electrophoresis (CE) on an ABI 3730 instrument and the peaks identified and quantitated by peak height. The experimental protocol is summarized schematically in FIG. 2.
For orientation: In flow cytometry, cells or beads pass a laser one at a time.

For the compound `Cc1cn([C@H]2C[C@H](O)[C@@H](COP(=O)(O)OP(=O)(O)OP(=O)(O)O)O2)c(=O)[nH]c1=O` [TTP, thymidine triphosphate, reference compound], the “C (context metric)” value stood at 0.86 at Bst DNA polymerase (Oligonucleotide template 1), 0.73 on Bst DNA polymerase (Oligonucleotide template 2) and 0.71 on Bst DNA polymerase (Oligonucleotide template 3). Further, in the experiment on hairpin oligo (mixture of C and A added after T or U analog), the “incorporation of dCTP and dATP after the dUTP analog” value is listed as “rapid”. Besides, the “initial incorporation of dUTP analog” value with hairpin oligo (unquenching of fluorescein in hairpin oligo) was “rapid”. Besides, the “CE product peaks of one base extension in competition with dUTP*” value with Bst DNA polymerase v.2.0 (5 micromolar, 40 s at 50° C.) is reported as “yields only a Pr-T peak”. Besides, the “flow cytometry signal of one base extension in competition with dUTP*” value in the experiment on Bst DNA polymerase v.2.0 (beads before stripping) is given as “relatively low”.
